The record followed here is DBAASP.

Among the test systems are Escherichia coli 078; Escherichia coli K99; Escherichia coli K88; Escherichia coli UB1005; Staphylococcus xylosus.
Common to all, as to experiment: ≥ marks a high value that may be exact or a test limit, other limits are often not marked, values filed in µg/mL are converted to µM
In assay [1] the test system is Salmonella enterica subsp. enterica serovar Typhimurium C77-31.
Assay [2] deals with Salmonella enterica subsp. enterica serovar Typhimurium ATCC 14028.
The test system of assay [3] is Staphylococcus aureus ATCC 25923.
The subject of assay [4] is Staphylococcus epidermidis ATCC 12228.
For assay [5], the system named is Candida parapsilosis CGMCC 2.3989.
Assay [6] relates to Candida tropicalis CGMCC 2.1975.
For assay [7], the system named is Salmonella enterica subsp. enterica serovar Pullorum ATCC 7913.
Assay [8] has as its system Staphylococcus aureus ATCC 43300.
The test system of assay [9] is Pseudomonas aeruginosa ATCC 27853.
Assay [10] has as its system Bordetella bronchiseptica CUN 11844-99.
For assay [11], the system named is Escherichia coli ATCC 25922.
The test system of assay [12] is Staphylococcus xylosus DSM 20287.
The test system of assay [13] is Bacillus subtilis DSM 347.
Assay [14] concerns Franconibacter helveticus DSM 18390.
The subject of assay [15] is Escherichia coli DSM 1116.
Assay [16] concerns Escherichia coli DH5alpha.

Each structure is given as a SMILES string. In brackets after ≈: the same amount, converted by molar mass.

Consider `CC[C@H](C)[C@H](NC(=O)[C@H](CCCN=C(N)N)NC(=O)[C@H](C)NC(=O)[C@H](C)N)C(=O)N[C@H](C(=O)N[C@@H](CC(C)C)C(=O)N[C@@H](CCCN=C(N)N)C(=O)N[C@@H](C)C(=O)N[C@@H](CCCN=C(N)N)C(=O)N[C@@H](Cc1ccccc1)C(=O)N[C@@H](CCCN=C(N)N)C(N)=O)[C@@H](C)CC` [AARIILRARFR], for which the MIC in assay [1] was 4 µM (≈ 5.37 µg/mL); in assay [2], 4 µM (≈ 5.37 µg/mL); in the assay on Escherichia coli 078, 4 µM (≈ 5.37 µg/mL); in [3] it was 4 µM (≈ 5.37 µg/mL); in assay [4], 2 µM (≈ 2.68 µg/mL); in assay [5] it was 16 µM (≈ 21.5 µg/mL). Moreover, the MIC in the assay on Escherichia coli K99 came to 2 µM (≈ 2.68 µg/mL); in the assay on Escherichia coli K88, 2 µM (≈ 2.68 µg/mL); in assay [6] it was 4 µM (≈ 5.37 µg/mL); in assay [7] it was 4 µM (≈ 5.37 µg/mL); in assay [8], 2 µM (≈ 2.68 µg/mL); in assay [9], 16 µM (≈ 21.5 µg/mL). In the assay on Escherichia coli UB1005, the MIC turned out to be 2 µM (≈ 2.68 µg/mL).

As to `CC[C@H](C)[C@H](NC(=O)[C@H](CCCN=C(N)N)NC(=O)[C@H](CC(C)C)NC(=O)[C@@H](NC(=O)[C@@H](NC(=O)[C@H](CCCN=C(N)N)NC(=O)[C@H](C)NC(=O)[C@H](C)N)[C@@H](C)CC)[C@@H](C)CC)C(=O)N[C@@H](CCCN=C(N)N)C(=O)N[C@@H](Cc1ccccc1)C(=O)N[C@@H](CCCN=C(N)N)C(N)=O` [AARIILRIRFR], the MIC stood at 4 µM (≈ 5.54 µg/mL) in [1]; 2 µM (≈ 2.77 µg/mL) in [2]; 2 µM (≈ 2.77 µg/mL) in the assay on Escherichia coli 078; 2 µM (≈ 2.77 µg/mL) in assay [3]; 2 µM (≈ 2.77 µg/mL) in assay [4]; 4 µM (≈ 5.54 µg/mL) in assay [5]. In addition, the MIC against Escherichia coli K99 turned out to be 4 µM (≈ 5.54 µg/mL); in the assay with Escherichia coli K88, 2 µM (≈ 2.77 µg/mL); in [6], 4 µM (≈ 5.54 µg/mL); in [7] it was 2 µM (≈ 2.77 µg/mL); in [8], 2 µM (≈ 2.77 µg/mL); in assay [9], 16 µM (≈ 22.1 µg/mL). The MIC against Escherichia coli UB1005 worked out at 4 µM (≈ 5.54 µg/mL).

On to `NCCCC[C@H](NC(=O)[C@H](Cc1ccc(O)cc1)NC(=O)[C@H](CCCN=C(N)N)NC(=O)[C@H](CCCN=C(N)N)NC(=O)CN)C(=O)N[C@@H](CCCCN)C(=O)N[C@@H](Cc1ccccc1)C(=O)N[C@@H](CCCCN)C(=O)N[C@@H](Cc1c[nH]c2ccccc12)C(=O)N[C@@H](CCCN=C(N)N)C(=O)N[C@@H](Cc1ccccc1)C(=O)N[C@@H](CCCN=C(N)N)C(=O)NCC(=O)N[C@@H](CCCN=C(N)N)C(=O)N[C@@H](Cc1ccccc1)C(=O)N[C@@H](Cc1c[nH]c2ccccc12)C(=O)N[C@@H](Cc1ccccc1)C(=O)N[C@@H](Cc1c[nH]c2ccccc12)C(=O)NCC(N)=O` [GRRYKKFKWRFRGRFWFWG], for which the MIC amounted to 12 µM (≈ 32 µg/mL) in [3], 6 µM (≈ 16 µg/mL) in assay [10] and 24 µM (≈ 64 µg/mL) in [11].

Take `CC[C@H](C)[C@H](N)C(=O)N[C@@H](C)C(=O)NCC(=O)N[C@@H](CCCCN)C(=O)N[C@H](C(=O)N[C@@H](C)C(=O)N[C@@H](CCCCN)C(=O)N[C@H](C(=O)N[C@@H](C)C(=O)NCC(=O)N[C@@H](CCCCN)C(=O)N[C@H](C(=O)N[C@@H](C)C(=O)N[C@@H](CCCCN)C(=O)N[C@H](C(=O)N[C@@H](C)C(=O)NCC(=O)N[C@@H](CCCCN)C(=O)N[C@H](C(=O)N[C@@H](C)C(=O)N[C@@H](CCCCN)C(N)=O)[C@@H](C)CC)[C@@H](C)CC)[C@@H](C)CC)[C@@H](C)CC)[C@@H](C)CC` [IAGKIAKIAGKIAKIAGKIAK]: the MIC in assay [12] was found to be 1.37 µM (≈ 2.83 µg/mL); in [13] it was 1.37 µM (≈ 2.83 µg/mL); in assay [14], 1.37 µM (≈ 2.83 µg/mL); in [15] it was 1.94 µM (≈ 4 µg/mL).

Turning to `CC[C@H](C)[C@H](N)C(=O)N[C@@H](C)C(=O)N[C@@H](CCCCN)C(=O)N[C@H](C(=O)N[C@@H](C)C(=O)NCC(=O)N[C@@H](CCCCN)C(=O)N[C@H](C(=O)N[C@@H](C)C(=O)N[C@@H](CCCCN)C(=O)N[C@H](C(=O)N[C@@H](C)C(=O)NCC(=O)N[C@@H](CCCCN)C(=O)N[C@H](C(=O)N[C@@H](C)C(=O)N[C@@H](CCCCN)C(N)=O)[C@@H](C)CC)[C@@H](C)CC)[C@@H](C)CC)[C@@H](C)CC` [IAKIAGKIAKIAGKIAK], the MIC was no less than 75.6 µM in assay [12], 9.44 µM (≈ 16 µg/mL) in [13], no less than 53.4 µM in assay [14] and no less than 75.6 µM in [15].

Consider `CC[C@H](C)[C@H](NC(=O)[C@H](CCCCN)NC(=O)CNC(=O)[C@H](C)NC(=O)[C@@H](NC(=O)[C@H](CCCCN)NC(=O)[C@H](C)NC(=O)[C@@H](NC(=O)[C@H](CCCCN)NC(=O)CNC(=O)[C@H](C)NC(=O)[C@@H](NC(=O)[C@H](CCCCN)NC(=O)[C@H](C)NC(=O)[C@@H](NC(=O)[C@H](CCCCN)NC(=O)CNC(=O)[C@H](C)NC(=O)[C@@H](NC(=O)[C@H](CCCCN)NC(=O)[C@H](C)NC(=O)[C@@H](NC(=O)[C@@H](N)CCCCN)[C@@H](C)CC)[C@@H](C)CC)[C@@H](C)CC)[C@@H](C)CC)[C@@H](C)CC)[C@@H](C)CC)C(=O)N[C@@H](C)C(N)=O` [KIAKIAGKIAKIAGKIAKIAGKIA], for which the MIC in [12], in [13], in assay [14] and in assay [15] was 0.842 µM (≈ 2 µg/mL) each time.

For `CC[C@H](C)[C@H](NC(=O)[C@H](CCCCN)NC(=O)CNC(=O)[C@H](C)NC(=O)[C@@H](NC(=O)[C@H](CCCCN)NC(=O)[C@H](C)NC(=O)[C@@H](NC(=O)[C@H](CCCCN)NC(=O)CNC(=O)[C@H](C)NC(=O)[C@@H](NC(=O)[C@H](CCCCN)NC(=O)[C@H](C)NC(=O)[C@@H](NC(=O)[C@@H](N)CCCCN)[C@@H](C)CC)[C@@H](C)CC)[C@@H](C)CC)[C@@H](C)CC)C(=O)N[C@@H](C)C(N)=O` [KIAKIAGKIAKIAGKIA], the MIC in assay [12] was no less than 37.8 µM; in [13], 6.68 µM (≈ 11.3 µg/mL); in [14], 9.44 µM (≈ 16 µg/mL); in assay [15], 6.68 µM (≈ 11.3 µg/mL).

On to `CC[C@H](C)[C@H](NC(=O)[C@H](CC(C)C)NC(=O)[C@H](CCCCN)NC(=O)[C@H](CCCN=C(N)N)NC(=O)[C@@H](N)CCCCN)C(=O)N[C@@H](CC(C)C)C(=O)N[C@@H](CCCCN)C(=O)N[C@@H](CCCN=C(N)N)C(=O)N[C@H](C(=O)N[C@@H](CC(C)C)C(=O)N[C@H](C(=O)N[C@@H](CCCCN)C(=O)N[C@@H](CCCN=C(N)N)C(=O)N[C@@H](CCCCN)C(=O)O)[C@@H](C)CC)[C@@H](C)CC` [KRKLILKRILIKRK], for which the figures for the MIC (in [16]; in the assay on Staphylococcus xylosus) were 16 µM (≈ 28.9 µg/mL) and 8 µM (≈ 14.5 µg/mL), respectively.

For `CC(C)C[C@H](NC(=O)[C@H](CC(C)C)NC(=O)[C@H](CC(C)C)NC(=O)[C@H](CC(C)C)NC(=O)[C@H](CC(C)C)NC(=O)[C@H](CCCN=C(N)N)NC(=O)[C@H](CCCN=C(N)N)NC(=O)[C@@H](N)CCCN=C(N)N)C(=O)N[C@@H](CCCN=C(N)N)C(=O)N[C@@H](CCCN=C(N)N)C(=O)N[C@@H](CCCN=C(N)N)C(=O)O` [RRRLLLLLRRR], the MIC amounted to 8 µM (≈ 12.2 µg/mL) in assay [16] and 1 µM (≈ 1.52 µg/mL) with Staphylococcus xylosus.
